Like-named read-outs stand apart in the source and are kept apart here.
How the values were obtained:
Set-up in all cases: species or system SD rats
serotonin S2 receptor = target: T1, serotonin S2 receptor (Rattus norvegicus, UniProt P14842); experiment: serotonin S2 receptor binding test ([3H] Ketanserin Binding Test); conditions: 1 nM [3H] Ketanserin, rat cortex, 37° C., 15 minutes
T1 construct: The receptor fraction prepared from the cortex was molten and suspended; from tissue; host or cells: cerebral cortex of SD rats (membrane fraction)
Experimental: (§1) The compounds of the present invention were subjected to each of serotonin S2 receptor binding test, dopamine D2 receptor binding test and adrenergic α1 receptor binding test.
(§2) The following reagents were used in this test.
(§3) These reagents and samples were each dissolved in 10% ethanol before use. Among them, water-insoluble compounds were each dissolved in ethanol and the obtained solution was diluted with distilled water to an ethanol concentration of 10%. Further, Methylsergide maleate was used in a state dissolved in distilled water.
(§4) SD rats aged 6 to 8 weeks were used.
(§5) SD rats were each slaughtered with a guillotine to extirpate its cerebrum. The cortex and corpus striatum were separated from the cerebrum. The former was used in serotonin S2 receptor binding test and adrenergic α1, receptor binding test, while the latter was used in dopamine D2 receptor binding test.
(§6) The cortex was homogenized in a 0.32 M sucrose solution in an amount ten times the wet weight of the cortex by the use of a teflon glass homogenizer and the resulting mixture was centrifuged at 10,000×G for 20 minutes. The obtained sediment was suspended in 50 mM Tris hydrochloride (pH 7.4) in an amount ten times the initial wet weight of the cortex by the use of a histocothrom, and the obtained suspension was centrifuged at 10,000×G for 20 minutes. This operation was repeated twice. The obtained sediment was suspended in 50 mM Tris hydrochloride (pH 7.4) in an amount 20 times the initial wet weight of the cortex by the use of a histocothrom. The suspension thus prepared was used as a receptor fraction. This receptor fraction was stored at -80° C. until use.
4. [^3 ] Ketanserin Binding Test
The receptor fraction prepared from the cortex was molten and suspended by the use of a histocothrom. The resulting suspension was incubated together with 1 nM-[^3 H] Ketanserin at 37° C. for 15 minutes. The resulting reaction system was filtered through a Whatman GF/B glass filter with an MR-30R type cell harvester mfd. by Blandel. The resulting filter was washed twice with 5 ml of 50 mM Tris hydrochloride (ph 7.4) cooled with ice and the radioactivity of the Ketanserin bound the receptor was determined by the use of a liquid scintillation counter with 5 ml of ACS II. The binding detected in the presence of […] of Methylsergide was regarded as nonspecific binding.
(§7) Each IC50 value was calculated by the probit method and each Ki value was determined by the following formula: [formula]
(§8) In the above formula, C represents the concentration of radioligand, and Kd represents the affinity of radioligand for the receptor as determined by the Scatchard analysis.

dopamine D2 receptor = target: T2, dopamine D2 receptor (Rattus norvegicus, UniProt P61169); experiment: dopamine D2 receptor binding test ([3H] Spiperone Binding Test); conditions: 1 nM [3H] Spiperone, rat corpus striatum, room temperature, 60 minutes
T2 construct: the receptor fraction prepared from the corpus striatum was molten and suspended; from tissue; host or cells: corpus striatum of SD rats (membrane fraction)
Experimental: as §1, §2, §3, §4, §5
On the other hand, the corpus striatum was homogenized in a 0.32 M sucrose solution in an amount ten times the wet weight of the corpus striatum by the use of a teflon glass homogenizer and the obtained mixture was centrifuged at 1,000×G for 20 minutes. The obtained supernatant was centrifuged at 10,000×G for 20 minutes. The obtained sediments were suspended together in 50 mM Tris hydrochloride (pH 7.4) in an amount ten times the initial wet weight of the corpus striatum by the use of a histocothrom, and the obtained suspension was centrifuged at 10,000×G for 20 minutes. This operation was repeated thrice. The resulting sediment was suspended in 50 mM Krebs-Tris (pH 7.4) in an amount 100 times the initial wet weight of the corpus striatum by the use of a histocothrom. The obtained suspension was used as a receptor fraction. This receptor fraction was stored at -80° C. until use.
as §7, §8
5. [^3 H] Spiperone Binding Test
(§9) This test was conducted in the same manner as that of the binding test of [^3 H] Ketanserin except that the receptor fraction prepared from the corpus striatum was molten and suspended with a histocothrom, and the obtained suspension was incubated together with 1 nM-[^3 H], Spiperone at room temperature for 60 minutes and that the binding detected in the presence of 10 μl of Spiperone was regarded as nonspecific binding.

adrenergic α1 receptor = adrenergic α1 receptor binding test ([3H] Prazosin Binding Test); conditions: 1 nM [3H] Prazosin, rat cortex, room temperature, 60 minutes
Experimental: as §1, §2, §3, §4, §5, §6, §7, §8
6. [^3 H] Prazosin Binding Test
as §9, with “cortex” for “corpus striatum”, “H] Prazosin” for “H], Spiperone”, “Phentolamine” for “Spiperone”

[1] = read-out: Ki value, dopamine D2 receptor

T1 sequence (P14842 whole entry): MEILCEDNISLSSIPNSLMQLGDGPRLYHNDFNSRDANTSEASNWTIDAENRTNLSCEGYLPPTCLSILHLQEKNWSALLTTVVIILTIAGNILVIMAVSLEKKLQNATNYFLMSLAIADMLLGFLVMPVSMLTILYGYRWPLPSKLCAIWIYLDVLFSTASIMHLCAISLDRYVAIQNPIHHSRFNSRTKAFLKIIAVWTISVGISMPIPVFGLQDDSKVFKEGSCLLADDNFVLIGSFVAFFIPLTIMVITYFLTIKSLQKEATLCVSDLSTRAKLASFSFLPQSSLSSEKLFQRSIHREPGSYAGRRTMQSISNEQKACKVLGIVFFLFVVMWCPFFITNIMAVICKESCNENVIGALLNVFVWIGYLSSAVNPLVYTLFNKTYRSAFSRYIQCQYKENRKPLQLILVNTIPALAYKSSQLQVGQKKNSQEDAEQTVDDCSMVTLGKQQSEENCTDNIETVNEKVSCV
T2 sequence (P61169 whole entry): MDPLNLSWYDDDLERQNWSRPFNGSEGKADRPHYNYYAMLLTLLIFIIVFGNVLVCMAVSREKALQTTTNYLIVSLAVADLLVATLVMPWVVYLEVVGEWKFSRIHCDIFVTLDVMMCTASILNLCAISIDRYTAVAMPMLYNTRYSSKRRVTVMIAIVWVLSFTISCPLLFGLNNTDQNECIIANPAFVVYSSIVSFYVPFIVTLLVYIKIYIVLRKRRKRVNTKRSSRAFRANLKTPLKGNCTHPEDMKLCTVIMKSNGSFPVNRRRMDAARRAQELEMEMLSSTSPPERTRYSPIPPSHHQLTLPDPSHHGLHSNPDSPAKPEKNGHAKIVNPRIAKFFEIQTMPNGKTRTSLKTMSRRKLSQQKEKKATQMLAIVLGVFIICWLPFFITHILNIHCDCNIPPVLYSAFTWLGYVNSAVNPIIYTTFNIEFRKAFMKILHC

| SMILES | Ki (serotonin S2 receptor) | Ki (dopamine D2 receptor; [1]) | Ki (adrenergic α1 receptor) | Ki (dopamine D2 receptor; Ki value, dopamine D2 receptor) |
| --- | --- | --- | --- | --- |
| CCCS(=O)(=O)Nc1cc(N2CCN(C)CC2)cc(-c2ccccc2C)c1Cl [Example 29, 1-Methyl-4-[3-(2-tolyl)-4-chloro-5-propanesulfonylamino]phenylpiperazine] | 4.86 nM | 1.19 nM | 50.1 nM |  |
| CCCCS(=O)(=O)Nc1cc(N2CCN(C)CC2)cc(-c2ccccc2C)c1Cl [Example 30] | 2.24 nM | 0.86 nM | 92.5 nM |  |
| CCN1CCN(c2cc(NS(=O)(=O)CC)c(Cl)c(-c3ccccc3Cl)c2)CC1 [Example 31, 1-Ethyl-4-[3-(2-chlorophenyl)-4-chloro-5-ethanesulfonylamino]phenylpiperazine] | 12.4 nM | 0.69 nM | 36.1 nM |  |
| CCCS(=O)(=O)Nc1cc(N2CCN(CC)CC2)cc(-c2ccccc2Cl)c1Cl [Example 32, 1-Ethyl-4-[3-(2-chlorophenyl)-4-chloro-5-propanesulfonylamino]phenylpiperazine] | 3.36 nM | 0.38 nM | 19.5 nM |  |
| CCCCS(=O)(=O)Nc1cc(N2CCN(CC)CC2)cc(-c2ccccc2Cl)c1Cl [Example 33, 1-Ethyl-4-[3-(2-chlorophenyl)-4-chloro-5-butanesulfonylamino]phenylpiperazine] | 6.46 nM | 2.02 nM | 86.9 nM |  |
| CCS(=O)(=O)Nc1cc(N2CCN(C)CC2)cc(-c2ccccc2Cl)c1Cl [Example 34, 1-Methyl-4-[3-(2-chlorophenyl)-4-chloro-5-ethanesulfonylamino]phenylpiperazine] | 7.77 nM | 0.37 nM | 25.8 nM |  |
| CCCS(=O)(=O)Nc1cc(N2CCN(C)CC2)cc(-c2ccccc2Cl)c1Cl [Example 35, 1-Methyl-4-[3-(2-chloropheyl)-4-chloro-5-propanesulfonylamino]phenylpiperazine] | 3.37 nM | 0.5 nM | 17 nM |  |
| CCCCS(=O)(=O)Nc1cc(N2CCN(C)CC2)cc(-c2ccccc2Cl)c1Cl [Example 36, 1Methyl-4-[3-(2-chlorophenyl)-4-chloro-5-butanesulfonylamino]phenylpiperazine] | 4.04 nM | 1.26 nM | 25.3 nM |  |
| CCN1CCN(c2cc(-c3ccc(F)cc3)c(OC)c(S(=O)(=O)CC)c2)CC1 [Example 40] | 3.64 nM | 9.25 nM | > 1000 nM |  |
| CCN1CCN(c2cc(CCl)c(OC)c(-c3ccccc3)c2)CC1 [Example 45, 1-Ethyl-4-(3-phenyl-4-methoxy-5-chloromelthy)phenylpiperazine] | 192 nM |  | 183 nM | 26.9 nM |
| C=CCCC(F)c1cc(N2CCN(CC)CC2)cc(-c2ccccc2)c1OC (stereo not drawn) [Example 46, 1-Ethyl-4-{3-phenyl-4-methoxy-5-[1-fluoro-(4-pentenyl)]}phenylpiperazine] | 2.16 nM | 9.78 nM | > 1000 nM |  |
| CCCC(F)c1cc(N2CCN(CC)CC2)cc(-c2ccccc2)c1OC (stereo not drawn) [Example 47, 1-Ethyl-4-[3-phenyl-4-methoxy-5-(1-fluorobutyl)]phenylpiperazine] | 5.72 nM | 12.9 nM | > 1000 nM |  |
| CCCCC(F)c1cc(N2CCN(CC)CC2)cc(-c2ccccc2)c1OC (stereo not drawn) [Example 48, 1-Ethyl-4-[3-phenyl-4-methoxy-5-(1-fluoropentyl)]phenylpiperazine] | 4.32 nM | 25.8 nM | > 1000 nM |  |
| CCCC(F)c1cc(N2CCN(CC)CC2)cc(-c2ccccc2C)c1Cl (stereo not drawn) [Example 49, 1-Ethyl-4-[3-(2-tolyl)-4-chloro-5-(1-fluorobutyl)]phenylpiperazine] | 20.1 nM | 6.09 nM | > 1000 nM |  |
| CCCC(F)c1cc(N2CCN(CC)CC2)cc(-c2ccccc2C)c1F (stereo not drawn) [Example 50, 1-Ethyl-4-[3-(2-tolyl)-4-fluoro-5-(1-fluorobutyl)]phenylpiperazine] | 17.7 nM | 9.14 nM | > 1000 nM |  |
| CCN1CCN(c2cc(-c3ccccc3C)c(Cl)c(C(F)CC(C)C)c2)CC1 (stereo not drawn) [Example 51, 1-Ethyl-4-[3-(2-tolyl)-4-chloro-5-(1-fluoro-3-methylbutyl)]phenylpiperazine] | 164 nM | 27.2 nM | > 1000 nM |  |
| CCN1CCN(c2cc(-c3ccccc3C)c(Cl)c(C(C)F)c2)CC1 (stereo not drawn) [Example 52] | 21.6 nM | 0.99 nM | > 1000 nM |  |
| CCCC(F)c1cc(N2CCN(C)CC2)cc(-c2ccccc2C)c1Cl (stereo not drawn) [Example 53, 1-Methyl-4-[3-(2-tolyl)-4-chloro-5-(1-fluorobutyl)]phenylpiperazine] | 12.4 nM | 6.73 nM | > 1000 nM |  |
| CCCC(F)c1cc(N2CCN(CC)CC2)cc(-c2ccccc2Cl)c1Cl (stereo not drawn) [Example 54, 1-Ethyl-4-[3-(2-chlorophenyl)-4-chloro-5-(1-fluorobutyl)]phenylpiperazine] | 37.5 nM | 6.06 nM | > 1000 nM |  |
| CCN1CCN(c2cc(-c3ccccc3C)c(Cl)c(C(F)(F)CC)c2)CC1 [Example 55, 1-Ethyl-4-[3-(2-tolyl)-4-chloro-5-(1,1-difluoropropyl)]phenylpiperazine] | 113 nM | 3.1 nM | > 1000 nM |  |
| CCN1CCN(c2cc(-c3ccccc3)c(OC)c(-c3ccccc3)c2)CC1 [Example 56, 1-Ethyl-4-(3,5-diphenyl-4-methoxy)phenylpiperazine] | 212 nM | 111 nM | 503 nM |  |
| CCN1CCN(c2ccc(OC)c(-c3ccccc3)c2)CC1 [Example 57, 1-Ethyl-4-(3-phenyl-4-methoxy)phenylpiperazine] | > 1000 nM | > 1000 nM | > 1000 nM |  |
| CCN1CCN(c2cc(-c3ccccc3)c(O)c(-c3ccccc3)c2)CC1 [Example 58, 1-Ethyl-4-(3,5-diphenyl-4-hydroxy)phenylpiperazine] | > 1000 nM | > 1000 nM | 290 nM |  |
| CCCc1cc(N2CCN(CC)CC2)cc(-c2ccccc2)c1OC [Example 59, 1-Ethyl-4-(3-phenyl-4-methoxy-5-propyl)phenylpiperazine] | 36.7 nM | 47 nM | 301 nM |  |
| CCN1CCN(c2cc(-c3ccccc3)c(OC(C)C)c(-c3ccccc3)c2)CC1 [Example 60, 1-Ethyl-4-(3,5-diphenyl-4-isopropxy)phenylpiperazine] | > 1000 nM | > 1000 nM | > 1000 nM |  |
| CCN1CCN(c2ccc(OC(C)C)c(-c3ccccc3)c2)CC1 [Example 61, 1-Ethyl-4-(3-phenyl-4-isopropxy)phenylpiperazine] | > 1000 nM | > 1000 nM | > 1000 nM |  |
| CCN1CCN(c2ccc(O)c(-c3ccccc3)c2)CC1 [Example 62, 1-Ethyl-4-(3-phenyl-4-hydroxy)phenylpiperazine] | > 1000 nM | > 1000 nM | > 1000 nM |  |
| CCN1CCN(c2cc(CCCO)cc(-c3ccccc3)c2OC)CC1 [Example 63, 1-Ethyl-4-[2-methoxy-3-phenyl-5-(3-hydroxypropyl)]phenylpiperazine] | 703 nM | > 1000 nM | > 1000 nM |  |
| COc1c(-c2ccccc2)cc(N2CCN(CCO)CC2)cc1-c1ccccc1 [Example 64] | 284 nM | 384 nM | 459 nM |  |
